According to PubChem BioAssay AID1963964 (Molecular Pharmacology Branch, DTP, NCI, 2024):

System: 997726-040-R-J2-PDC tumor spheroids, viability
Assay: Anticancer human tumor 997726-040-R-J2-PDC patient-derived squamous cell lung carcinoma cell line growth inhibition [PI3K]
Details: spheroids with HUVEC and MSC; for viability, T/C: stronger effect = lower value
In short: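 Agents were dosed from a top concentration near clinical Cmax (otherwise 10 microM) in half-log decrements, alone or combined with PI3K inhibitors. The spheroids contain tumor cells plus endothelial (HUVEC) and MSC stroma; viability is measured.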

[1] = curve of first compound, second compound 0.00316 µM
[2] = curve of first compound, second compound 0.01 µM
[3] = curve of first compound, second compound 0.0316 µM
[4] = curve of first compound, second compound 0.1 µM
[5] = curve of first compound, second compound 0.316 µM
[6] = curve of first compound, second compound 1 µM
[7] = second compound 0.00316 µM, first compound 0.0316 µM
[8] = second compound 0.00316 µM, first compound 0.1 µM
[9] = second compound 0.00316 µM, first compound 0.316 µM
[10] = second compound 0.00316 µM, first compound 1 µM
[11] = second compound 0.00316 µM, first compound 3.16 µM
[12] = second compound 0.00316 µM, first compound 10 µM
[13] = second compound 0.01 µM, first compound 0.0316 µM
[14] = second compound 0.01 µM, first compound 0.1 µM
[15] = second compound 0.01 µM, first compound 0.316 µM
[16] = second compound 0.01 µM, first compound 1 µM
[17] = second compound 0.01 µM, first compound 3.16 µM
[18] = second compound 0.01 µM, first compound 10 µM
[19] = second compound 0.0316 µM, first compound 0.0316 µM
[20] = second compound 0.0316 µM, first compound 0.1 µM
[21] = second compound 0.0316 µM, first compound 0.316 µM
[22] = second compound 0.0316 µM, first compound 1 µM
[23] = second compound 0.0316 µM, first compound 3.16 µM
[24] = second compound 0.0316 µM, first compound 10 µM
[25] = second compound 0.1 µM, first compound 0.0316 µM
[26] = second compound 0.1 µM, first compound 0.1 µM
[27] = second compound 0.1 µM, first compound 0.316 µM
[28] = second compound 0.1 µM, first compound 1 µM
[29] = second compound 0.1 µM, first compound 3.16 µM
[30] = second compound 0.1 µM, first compound 10 µM
[31] = second compound 0.316 µM, first compound 0.0316 µM
[32] = second compound 0.316 µM, first compound 0.1 µM
[33] = second compound 0.316 µM, first compound 0.316 µM
[34] = second compound 0.316 µM, first compound 1 µM
[35] = second compound 0.316 µM, first compound 3.16 µM
[36] = second compound 0.316 µM, first compound 10 µM
[37] = second compound 1 µM, first compound 0.0316 µM
[38] = second compound 1 µM, first compound 0.1 µM
[39] = second compound 1 µM, first compound 0.316 µM
[40] = second compound 1 µM, first compound 1 µM
[41] = second compound 1 µM, first compound 3.16 µM
[42] = second compound 1 µM, first compound 10 µM
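Note: spheroids exposed to compounds for seven days before readout.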

Work on `C=CC(=O)N1CCN(c2nc(=O)n(-c3c(C)ccnc3C(C)C)c3nc(-c4c(O)cccc4F)c(F)cc23)C(C)C1` (configuration not stated) + CC(Nc1ccc2c(c1)OCCn1cc(N3C(=O)OCC3C(F)F)nc1-2)C(N)=O yielded an IC50 [1] greater than 10 µM, an IC50 [2] greater than 10 µM and an IC50 [3] greater than 10 µM. For the same compound, the IC50 [4] was less than 0.0316 µM, the IC50 [5] was less than 0.0316 µM and the IC50 [6] was less than 0.0316 µM. For the same compound, the viability, T/C [7] was 88.3%, the viability, T/C [8] was 93.5% and the viability, T/C [9] was 96.6%. It also gave a viability, T/C [10] of 103%, a viability, T/C [11] of 119% and a viability, T/C [12] of 114%. For the same compound, the viability, T/C [13] was 87%, the viability, T/C [14] was 81.7% and the viability, T/C [15] was 88.5%. For the same compound, the viability, T/C [16] was 81.7%, the viability, T/C [17] was 106% and the viability, T/C [18] was 98.8%. The viability, T/C [19] was 60.2%, the viability, T/C [20] was 63.4% and the viability, T/C [21] was 67.5%. It also gave a viability, T/C [22] of 67.2%, a viability, T/C [23] of 72.1% and a viability, T/C [24] of 82.3%. It also gave a viability, T/C [25] of 43.7%, a viability, T/C [26] of 47.3% and a viability, T/C [27] of 43.3%. For the same compound, the viability, T/C [28] was 49.1%, the viability, T/C [29] was 54.4% and the viability, T/C [30] was 48.4%. The viability, T/C [31] was 31.6%, the viability, T/C [32] was 32.8% and the viability, T/C [33] was 33.8%. It also gave a viability, T/C [34] of 33.4%, a viability, T/C [35] of 37.7% and a viability, T/C [36] of 33.5%. The viability, T/C [37] was 26.7%, the viability, T/C [38] was 27.5% and the viability, T/C [39] was 29.5%. For the same compound, the viability, T/C [40] was 26.7%, the viability, T/C [41] was 30% and the viability, T/C [42] was 27.2%.

`Cc1nc(NC(=O)N2CCCC2C(N)=O)sc1-c1ccnc(C(C)(C)C(F)(F)F)c1` (configuration not stated) was tested, and the viability, T/C (compound 0.0316 µM) was 91.9% [middle of 8 runs], the viability, T/C (compound 0.1 µM) was 77% [middle of 8 runs] and the viability, T/C (compound 0.316 µM) was 57.5% [middle of 8 runs]. The viability, T/C (compound 1 µM) was 42.9% [middle of 8 runs], the viability, T/C (compound 3.16 µM) was 30.8% [middle of 8 runs] and the viability, T/C (compound 10 µM) was 16.2% [middle of 8 runs]. For the same compound, the IC50 (compound alone, run of 06/12/2023) was 599 nM [middle of 8 runs].

In the case of `CC1(C)CCC(CN2CCN(c3ccc(C(=O)NS(=O)(=O)c4ccc(NCC5CCOCC5)c([N+](=O)[O-])c4)c(Oc4cnc5[nH]ccc5c4)c3)CC2)=C(c2ccc(Cl)cc2)C1`, the viability, T/C (compound 0.0316 µM) is reported as 98.4% [middle of 4 runs], the viability, T/C (compound 0.1 µM) is reported as 95.7% [middle of 4 runs] and the viability, T/C (compound 1 µM) is reported as 102% [middle of 4 runs]. The viability, T/C (compound 3.16 µM) was 98.8% [middle of 4 runs], the viability, T/C (compound 10 µM) was 42.4% [middle of 4 runs] and the IC50 (curve of compound) was 8.5 µM [middle of 4 runs].

`C[C@@H](NC(=O)c1ncnc(N)c1Cl)c1ncc(C(=O)Nc2cc(C(F)(F)F)c(Cl)cn2)s1` + CC(Nc1ccc2c(c1)OCCn1cc(N3C(=O)OCC3C(F)F)nc1-2)C(N)=O showed an IC50 [1] greater than 10 µM, an IC50 [2] greater than 10 µM and an IC50 [3] of 6.26 µM. The IC50 [4] was 4.17 µM, the IC50 [5] was less than 0.0316 µM and the IC50 [6] was less than 0.0316 µM. For the same compound, the viability, T/C [7] was 92.1%, the viability, T/C [8] was 122% and the viability, T/C [9] was 104%. It also gave a viability, T/C [10] of 100%, a viability, T/C [11] of 85.3% and a viability, T/C [12] of 60.4%. It also gave a viability, T/C [13] of 89.5%, a viability, T/C [14] of 95.2% and a viability, T/C [15] of 93.5%. It also gave a viability, T/C [16] of 93.7%, a viability, T/C [17] of 80.7% and a viability, T/C [18] of 58.3%. The viability, T/C [19] was 67%, the viability, T/C [20] was 80.4% and the viability, T/C [21] was 66.1%. For the same compound, the viability, T/C [22] was 61.9%, the viability, T/C [23] was 57.9% and the viability, T/C [24] was 45.3%. It also gave a viability, T/C [25] of 55%, a viability, T/C [26] of 53.7% and a viability, T/C [27] of 58.3%. It also gave a viability, T/C [28] of 58.3%, a viability, T/C [29] of 51.8% and a viability, T/C [30] of 40.5%. It also gave a viability, T/C [31] of 42.3%, a viability, T/C [32] of 39.3% and a viability, T/C [33] of 37.1%. For the same compound, the viability, T/C [34] was 41%, the viability, T/C [35] was 39.2% and the viability, T/C [36] was 30.7%. It also gave a viability, T/C [37] of 34%, a viability, T/C [38] of 33.8% and a viability, T/C [39] of 33.6%. The viability, T/C [40] was 35.5%, the viability, T/C [41] was 33.6% and the viability, T/C [42] was 24.1%.
